Measured values: EP4729529A1, “PREPARATION OF PEPTIDE INHIBITOR OF INTERLEUKIN-23 RECEPTOR AND USE THEREOF” (Xizang Haisco Pharmaceutical Co., Ltd., priority 2023, dated 2024)
Starred links: 1 amine or outer side, 2 acyl side, 3 side chain; linkers in the order of their positions; H or OH if unused. Positions of bridges follow the written chain, without caps; N, C: chain ends. Non-standard residues stand in square brackets, D forms with d. Residues, ends and D or L forms follow the SMILES beside them. Phe(4-OC2H4NH2,2,3-(CH2)3) = NCCOc1ccc(C[C@H](N)C(=O)O)c2c1CCC2; Trp(7-cPr) = N[C@@H](Cc1c[nH]c2c(C3CC3)cccc12)C(=O)O; NH(CH2CH2O)4CH2CO = O=C(COCCOCCOCCOCCN[*:1])[*:2]; Trp(7-Me) = Cc1cccc2c(C[C@H](N)C(=O)O)c[nH]c12; 2Nal = N[C@@H](Cc1ccc2ccccc2c1)C(=O)O; X1 = O=C(C(N[*:1])C1(S[*:3])CC1)[*:2]; Thp(SO2) = NC1(C(=O)O)CCS(=O)(=O)CC1; AEF = NCCOc1ccc(C[C@H](N)C(=O)O)cc1; 3Pal = N[C@@H](Cc1cccnc1)C(=O)O; Cit = NC(=O)NCCC[C@H](N)C(=O)O; Pen = CC(C)(S)[C@H](N)C(=O)O; Thp = NC1(C(=O)O)CCOCC1; AEEA = NCCOCCOCC(=O)O; PEG1 = NCCOCCC(=O)O; Ahx = NCCCCCC(=O)O; Sar = CNCC(=O)O

How the values were obtained:
[1] = target: T1, IL-23α/IL-12β and IL-23R (Homo sapiens, UniProt Q5VWK5); test: IL-23α/IL-12β and IL-23R binding assay (TR-FRET/HTRF); details: inhibition of the binding of IL-23α/IL-12β to IL-23R, TR-FRET; both proteins 0.3 nM
T1 construct: purchased ACRO ILR-H82F3 (IL-23R); ILB-H52W5 (IL-23α/IL-12β)
T1 sequence (Q5VWK5 24-353 limits assumed): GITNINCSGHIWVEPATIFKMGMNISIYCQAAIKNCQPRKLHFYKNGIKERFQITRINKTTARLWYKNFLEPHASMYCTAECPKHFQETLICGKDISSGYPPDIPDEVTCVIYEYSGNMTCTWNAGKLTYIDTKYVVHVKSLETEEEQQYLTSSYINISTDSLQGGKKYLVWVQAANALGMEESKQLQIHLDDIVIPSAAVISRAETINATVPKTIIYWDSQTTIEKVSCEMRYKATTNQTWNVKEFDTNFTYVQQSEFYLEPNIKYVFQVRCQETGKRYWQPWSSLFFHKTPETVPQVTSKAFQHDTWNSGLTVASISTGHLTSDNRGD
Summary of the method: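 TR-FRET with IL-23α/IL-12β and IL-23R each at 0.3 nM in PPI buffer; compound preincubated with IL-23α/IL-12β 60 min at 25°C, then IL-23R and Tb/d2 detection reagents added for 60 min. HTRF 665/620 ratio; IC50 by nonlinear regression.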

[2] = target: T2, IL-23R (Homo sapiens, UniProt Q5VWK5); test: IL-23R reporter gene assay (HEK-blue IL23 reporter gene cell line, rhIL23 stimulation); assay type: cell-based; details: Inhibition of IL-23R, rhIL23 1 ng/mL, 24 hours
T2 construct: host or cells: HEK-blue IL23 reporter gene cell line
T2 sequence (Q5VWK5 24-629): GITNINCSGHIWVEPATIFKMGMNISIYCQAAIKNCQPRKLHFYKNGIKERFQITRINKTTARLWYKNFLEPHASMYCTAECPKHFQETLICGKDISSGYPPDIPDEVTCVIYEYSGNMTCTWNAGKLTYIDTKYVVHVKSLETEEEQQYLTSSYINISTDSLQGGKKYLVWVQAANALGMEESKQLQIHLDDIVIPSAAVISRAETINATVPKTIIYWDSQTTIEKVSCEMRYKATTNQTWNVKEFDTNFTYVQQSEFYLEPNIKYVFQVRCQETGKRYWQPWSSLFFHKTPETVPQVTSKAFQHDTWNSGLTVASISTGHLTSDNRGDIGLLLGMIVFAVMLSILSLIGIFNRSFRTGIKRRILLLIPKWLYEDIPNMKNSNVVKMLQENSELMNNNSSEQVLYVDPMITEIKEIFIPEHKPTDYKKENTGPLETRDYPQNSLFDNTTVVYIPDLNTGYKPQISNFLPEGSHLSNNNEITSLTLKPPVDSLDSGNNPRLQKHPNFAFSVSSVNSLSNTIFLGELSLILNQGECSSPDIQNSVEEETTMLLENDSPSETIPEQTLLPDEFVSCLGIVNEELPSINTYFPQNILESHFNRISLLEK
Method: 2. IL-23R reporter gene assay
The purpose of this assay was to assess the ability of compounds to inhibit the binding of IL23p19 to IL23R in a reporter gene system. The HEK-blue IL23 reporter gene cell line (Invivogen, hkb-il23) was cultured in DMEM + 10% FBS + 100 ug/mL Normocin medium. When the cell density reached 80%-90%, 5000 cells/well were plated into a 384-well plate, and the plate was incubated overnight at 37°C with 5% CO2. Then, the compound stock solution was diluted in DMSO, and 40 nL of the dilution was transferred into the 384-well culture plate by Echo. The plate was incubated at 37°C with 5% CO2 for 0.5 hours. 40 nL/well of rhIL23 (R&D, 1290-IL) was added to the 384-well cell culture plate at a final concentration of 1 ng/mL, and the plate was incubated at 37°C with 5% CO2 for 24 hours. 18 µL of Quanti-Blue™ solution was added to a new 384-well plate. 2 µL/well of cell culture supernatant was transferred into the 384-well plate prepared in Step 6, and the plate was incubated at 37°C with 5% CO2 for 1 hour. Absorbance values at […] were read on BMG. The binding ability of the compounds was assessed using the following formula, and IC50 values were obtained by fitting with Graphpad.
Calculation formula of inhibition rate: [formula] • where Data negative: mean of DMSO control group; and • Data positive: mean of non-IL23-stimulated group
The calculation formula of IC50 was as follows: Y = Bottom + (Top−Bottom)/(1+10^(∧)((LogIC50−X)*HillSlope)) [formula] • where X: concentration of compound; and • Y: inhibition rate of compound Table 2. Inhibition of IL-23R by test compounds

[3] = Pharmacokinetic test in mice (intravenous and intragastric, plasma LC-MS/MS); assay type: in vivo; details: male, mouse, Balb/c mice
Method: 4. Pharmacokinetic test in mice
4.1. Experimental animals: Male Balb/c mice (20-25 g, 18 mice/compound) were purchased from Chengdu Dossy Experimental Animals Co., Ltd.
4.2. Experimental design: On the day of the experiment, the Balb/c mice were randomly grouped by body weight. The animals were fasted with water available for 12-14 h one day before the administration, and were fed 4 h after the administration. Table 4. Administration information
Before and after administration, 0.06 mL of blood was taken from the orbit under isoflurane anaesthesia, and placed in an EDTAK2 centrifuge tube. The tube was centrifuged at 5000 rpm at 4°C for 10 min, and plasma was collected. The blood collection time points for the intravenous group and intragastric group were both 0 min, 5 min, 15 min, 30 min, 1 h, 2 h, 4 h, 6 h, 8 h, and 24 h. Before analysis and detection, all samples were stored at -80°C, and the samples were quantitatively analysed by LC-MS/MS. Table 5. Pharmacokinetic parameters of test compounds in mouse plasma

| SMILES | IC50 [1] | IC50 [2] | AUC(0-t) ([3]; iv, i.v. (1 mg/kg)) | clearance ([3]; iv, i.v. (1 mg/kg)) | Vd ([3]; iv, i.v. (1 mg/kg), read-out: Vdss) | AUC(0-t) ([3]; po, i.g. (10 mg/kg)) | bioavailability ([3]; po, i.g. (10 mg/kg)) |
| --- | --- | --- | --- | --- | --- | --- | --- |
| CC(=O)NCCCC[C@@H]1NC(=O)[C@H](Cc2c[nH]c3c(C)cccc23)NC(=O)[C@H]([C@@H](C)O)NC(=O)[C@H](CC(N)=O)NC(=O)[C@@H](NC(C)=O)C(C)(C)SSC(C)(C)[C@@H](C(=O)N[C@@H](Cc2ccc(OCCN)cc2)C(=O)N[C@@H](Cc2ccc3ccccc3c2)C(=O)NC2(C(=O)N[C@@H](CCC(=O)O)C(=O)N[C@@H](CC(N)=O)C(=O)N[C@@H](Cc3cccnc3)C(=O)N(C)CC(N)=O)CCS(=O)(=O)CC2)NC1=O [Compound 9] | 56 pM | 2560 pM |  |  |  |  |  |
| CC(=O)NCCCC[C@@H]1NC(=O)[C@H](Cc2c[nH]c3c(C)cccc23)NC(=O)[C@H]([C@@H](C)O)NC(=O)[C@H](Cc2c[nH]cn2)NC(=O)[C@H]2NC(=O)CCCCCNC(=O)CC[C@@H](C(=O)N[C@@H](CC(N)=O)C(=O)N[C@@H](Cc3cccnc3)C(=O)N(C)CC(N)=O)NC(=O)C3(CCOCC3)NC(=O)[C@H](Cc3ccc4ccccc4c3)NC(=O)[C@H](Cc3ccc(OCCN)cc3)NC(=O)[C@@H](NC1=O)C(C)(C)SSC2(C)C [Compound 11] ([Ahx][Pen]HT[Trp(7-Me)]K(Ac)[Pen][AEF][2Nal][Thp]EN[3Pal][Sar]-NH2; disulfide 2-7; lactam N-11) | 124 pM | 7470 pM |  |  |  |  |  |
| CC(=O)N[C@@H]1C(=O)N[C@@H](Cc2c[nH]cn2)C(=O)N[C@@H]([C@@H](C)O)C(=O)N[C@@H](Cc2c[nH]c3c(C4CC4)cccc23)C(=O)N[C@@H](CCCNC(N)=O)C(=O)N[C@H](C(=O)N[C@@H](Cc2ccc(OCCN)cc2)C(=O)N[C@@H](Cc2ccc3ccccc3c2)C(=O)NC2(C(=O)N[C@@H](CCC(=O)O)C(=O)N[C@@H](CC(N)=O)C(=O)N[C@@H](Cc3cccnc3)C(=O)N(C)CC(N)=O)CCOCC2)C(C)(C)SSC1(C)C [Compound 12] (Ac-[Pen]HT[Trp(7-cPr)][Cit][Pen][AEF][2Nal][Thp]EN[3Pal][Sar]-NH2; disulfide 1-6) | 41.7 pM | 3580 pM |  |  |  |  |  |
| CC(=O)NC1C(=O)N[C@@H](Cc2c[nH]cn2)C(=O)N[C@@H]([C@@H](C)O)C(=O)N[C@@H](Cc2c[nH]c3c(C4CC4)cccc23)C(=O)N[C@@H](CCC(N)=O)C(=O)N[C@H](C(=O)N[C@@H](Cc2ccc(OCCN)c3c2CCC3)C(=O)N[C@@H](Cc2ccc3ccccc3c2)C(=O)NC2(C(=O)N[C@@H](CCC(=O)O)C(=O)N[C@@H](CC(N)=O)C(=O)N[C@@H](Cc3cccnc3)C(=O)N(C)CC(N)=O)CCS(=O)(=O)CC2)C(C)(C)SSC12CC2 (stereo partly shown) [Compound 24] (Ac-[X1]HT[Trp(7-cPr)]Q[Pen][Phe(4-OC2H4NH2,2,3-(CH2)3)][2Nal][Thp(SO2)]EN[3Pal][Sar]-NH2; disulfide 1-6) | 63 pM | 9380 pM | 6770 ± 183 ng·h/mL | 2.42 ± 0.064 mL/min/kg | 0.225 ± 0.017 L/kg | 227 ± 139 ng·h/mL | 0.335 ± 0.2% |
| CC(=O)NCCCC[C@@H]1NC(=O)[C@H](Cc2c[nH]c3c(C)cccc23)NC(=O)[C@H]([C@@H](C)O)NC(=O)[C@H](Cc2c[nH]cn2)NC(=O)[C@H]2NC(=O)COCCOCCNC(=O)CC[C@@H](C(=O)N[C@@H](CC(N)=O)C(=O)N[C@@H](Cc3cccnc3)C(=O)N(C)CC(N)=O)NC(=O)C3(CCOCC3)NC(=O)[C@H](Cc3ccc4ccccc4c3)NC(=O)[C@H](Cc3ccc(OCCN)cc3)NC(=O)[C@@H](NC1=O)C(C)(C)SSC2(C)C [Compound 27] ([AEEA][Pen]HT[Trp(7-Me)]K(Ac)[Pen][AEF][2Nal][Thp]EN[3Pal][Sar]-NH2; disulfide 2-7; lactam N-11) | 114 pM | 1370 pM |  |  |  |  |  |
| CC(=O)NCCCC[C@@H]1NC(=O)[C@H](Cc2c[nH]c3c(C)cccc23)NC(=O)[C@H]([C@@H](C)O)NC(=O)[C@H](Cc2c[nH]cn2)NC(=O)[C@H]2NC(=O)CCOCCNC(=O)CC[C@@H](C(=O)N[C@@H](CC(N)=O)C(=O)N[C@@H](Cc3cccnc3)C(=O)N(C)CC(N)=O)NC(=O)C3(CCOCC3)NC(=O)[C@H](Cc3ccc4ccccc4c3)NC(=O)[C@H](Cc3ccc(OCCN)cc3)NC(=O)[C@@H](NC1=O)C(C)(C)SSC2(C)C [Compound 28] ([PEG1][Pen]HT[Trp(7-Me)]K(Ac)[Pen][AEF][2Nal][Thp]EN[3Pal][Sar]-NH2; disulfide 2-7; lactam N-11) | 122 pM | 6270 pM |  |  |  |  |  |
| CC(=O)NCCCC[C@@H]1NC(=O)[C@H](Cc2c[nH]c3c(C)cccc23)NC(=O)[C@H]([C@@H](C)O)NC(=O)[C@H](Cc2c[nH]cn2)NC(=O)[C@H]2NC(=O)COCCOCCOCCOCCNC(=O)CC[C@@H](C(=O)N[C@@H](CC(N)=O)C(=O)N[C@@H](Cc3cccnc3)C(=O)N(C)CC(N)=O)NC(=O)C3(CCOCC3)NC(=O)[C@H](Cc3ccc4ccccc4c3)NC(=O)[C@H](Cc3ccc(OCCN)cc3)NC(=O)[C@@H](NC1=O)C(C)(C)SSC2(C)C [Compound 29] ([NH(CH2CH2O)4CH2CO][Pen]HT[Trp(7-Me)]K(Ac)[Pen][AEF][2Nal][Thp]EN[3Pal][Sar]-NH2; disulfide 2-7; lactam N-11) | 89 pM | 1720 pM |  |  |  |  |  |
